The results in this text go back to ChEMBL document CHEMBL1129892, “Tetracyclic analogues of [+]-S 14297: Synthesis and determination of affinity and selectivity at cloned human dopamine D3 vs D2 receptors” (Bioorg Med Chem Lett, 1997).

pKi: −log10 of the molar value. Bounds are passed on as bounds.

One test concerns the target D(3) dopamine receptor (Homo sapiens, UniProt P35462). In words: biochemical.
In another test the target is D(2) dopamine receptor (Homo sapiens, UniProt P14416). The test is classed as cell membranes, CHO.
D(2) dopamine receptor, sequence (P14416 whole entry): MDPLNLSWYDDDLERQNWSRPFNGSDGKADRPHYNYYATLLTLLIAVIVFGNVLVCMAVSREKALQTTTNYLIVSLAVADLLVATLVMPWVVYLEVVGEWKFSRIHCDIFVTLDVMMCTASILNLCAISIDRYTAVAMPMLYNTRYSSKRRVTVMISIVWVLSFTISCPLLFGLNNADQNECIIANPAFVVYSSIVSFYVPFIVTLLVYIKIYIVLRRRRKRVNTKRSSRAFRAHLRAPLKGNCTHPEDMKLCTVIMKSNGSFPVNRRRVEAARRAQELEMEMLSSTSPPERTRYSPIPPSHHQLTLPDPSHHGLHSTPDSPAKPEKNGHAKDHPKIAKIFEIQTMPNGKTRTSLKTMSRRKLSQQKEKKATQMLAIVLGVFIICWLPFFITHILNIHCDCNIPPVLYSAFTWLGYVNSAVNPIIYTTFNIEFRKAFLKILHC

D(3) dopamine receptor, sequence (P35462 whole entry): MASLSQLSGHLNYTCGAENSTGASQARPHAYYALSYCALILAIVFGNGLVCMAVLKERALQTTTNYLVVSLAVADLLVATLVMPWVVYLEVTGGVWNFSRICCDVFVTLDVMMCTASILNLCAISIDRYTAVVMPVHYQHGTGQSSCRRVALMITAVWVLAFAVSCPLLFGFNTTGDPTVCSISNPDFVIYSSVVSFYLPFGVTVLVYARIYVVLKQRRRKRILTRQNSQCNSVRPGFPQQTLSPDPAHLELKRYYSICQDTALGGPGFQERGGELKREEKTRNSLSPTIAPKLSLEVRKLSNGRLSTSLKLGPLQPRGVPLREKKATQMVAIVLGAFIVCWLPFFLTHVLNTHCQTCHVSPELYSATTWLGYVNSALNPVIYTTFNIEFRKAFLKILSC
Description for D(3) dopamine receptor: Inhibition of [125 I]iodosulpiride binding to human Dopamine receptor D3 expressed in CHO cell membranes

One may read the pKi as −log10 of the Ki, conventionally taken in molar units. A high value points to a low Ki. In the case of `CCCN(CCC)C1CCc2cc3c(cc2C1)OCC3` (stereo not given), the negative logarithm of the Ki (pKi) on D(3) dopamine receptor is 7.90; at D(2) dopamine receptor it was 6.60.

Regarding `CC(C)CN1CCO[C@@H]2c3cc4c(cc3CC[C@H]21)CCO4`, the pKi is 6.90 at D(3) dopamine receptor and 5.30 on D(2) dopamine receptor. Regarding `CCCN1CCO[C@@H]2c3cc4c(cc3CC[C@H]21)CCO4`, on D(2) dopamine receptor, the pKi is 6.40. `CCCN1CCO[C@@H]2c3cc4c(cc3OC[C@H]21)CCO4` had a pKi on D(2) dopamine receptor of 4.90. Consider `CCCN1CCC[C@@H]2c3cc4c(cc3CC[C@H]21)CCO4`, for which the pKi at D(3) dopamine receptor is 7.60; on D(2) dopamine receptor, 6.30. For `c1c2c(cc3c1CC[C@@H]1[C@@H]3OCCN1CC1CC1)OCC2` the same measures were 7.20 and 5.60. The corresponding values for `c1c2c(cc3c1CC[C@H]1NCCO[C@H]31)OCC2` are 6.70 and 6.00. The corresponding values for `CN1CCO[C@@H]2c3cc4c(cc3CC[C@H]21)CCO4` are 7.10 and 6.40. At D(2) dopamine receptor, `CCCN1CCO[C@H]2c3cc4c(cc3CC[C@H]21)CCO4` gave a pKi of less than 5.00. Still for that read-out and setting: the figure for `CCCN1CCO[C@H]2c3cc4c(cc3OC[C@H]21)CCO4` is less than 4.00. For `c1ccc(CN2CCO[C@@H]3c4cc5c(cc4CC[C@H]32)CCO5)cc1`, the pKi at D(3) dopamine receptor and at D(2) dopamine receptor was less than 5.00 each time. On to `c1ccc(CCN2CCO[C@@H]3c4cc5c(cc4CC[C@H]32)CCO5)cc1`, for which the pKi at D(3) dopamine receptor and at D(2) dopamine receptor was less than 5.00 each time.
